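Grown in 96-well plates, cells were treated for 48 hours with each compound at five concentrations. Insufficient inhibition: endpoint recorded as highest concentration tested. At the GI50, growth is halved.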 The source made the active and inactive calls. Rule as the data show it: active = GI50 up to about 1.1 µM and inactive = higher.
Key:
Assay in all cases: NCI tumour cell line growth inhibition, 48 h
HT-29 = test system: HT-29
TK-10 = test system: TK-10
MDA-MB-231 = test system: MDA-MB-231
SF-268 = test system: SF-268
MCF7 = test system: MCF7
NCI/ADR-RES = test system: NCI/ADR-RES
SN12C = test system: SN12C
T47D = test system: T47D
CCRF-CEM = test system: CCRF-CEM
RXF 393 = test system: RXF 393
A498 = test system: A498
U-251 = test system: U-251
Malme-3M = test system: Malme-3M
SNB-75 = test system: SNB-75
IGROV-1 = test system: IGROV-1
UACC-62 = test system: UACC-62
LOX IMVI = test system: LOX IMVI
SF-295 = test system: SF-295
NCI-H522 = test system: NCI-H522

Measured: GI50

COC1C(OC(N)=O)C(O)C(Oc2ccc3c(O)c(NC(=O)c4ccc(O)c(CC=C(C)C)c4)c(=O)oc3c2C)OC1(C)C (configuration not stated)
inactive: HT-29 > 100 µM | TK-10 > 10 µM | MDA-MB-231 > 100 µM | SF-268 > 100 µM | MCF7 > 100 µM | NCI/ADR-RES > 100 µM | SN12C > 100 µM | T47D > 100 µM | CCRF-CEM 77.8 µM | RXF 393 > 100 µM | A498 > 100 µM | U-251 99.5 µM | Malme-3M > 100 µM | SNB-75 > 100 µM | IGROV-1 > 100 µM | UACC-62 69.2 µM

NC(=O)OCC(COc1ccc(Cl)cc1)OC(=O)c1ccccc1Cl (configuration not stated)
inactive: HT-29 17.6 µM | TK-10 28.8 µM | SF-268 24.8 µM | LOX IMVI 13.8 µM | SN12C 16.6 µM | CCRF-CEM 22.3 µM | SF-295 25.4 µM | RXF 393 12.6 µM | A498 > 100 µM | U-251 14.1 µM | NCI-H522 16.9 µM | Malme-3M 20.3 µM | SNB-75 41.7 µM | IGROV-1 25.5 µM | UACC-62 17.2 µM

O=S(=O)(O)c1cc(S(=O)(=O)O)c2cc(/N=N/c3ccc(/N=N/c4ccc(/C=C/c5ccc(/N=[N+](/[O-])c6ccc(/C=C/c7ccc(/N=N/c8ccc(/N=N/c9ccc%10cc(S(=O)(=O)O)cc(S(=O)(=O)O)c%10c9)cc8)cc7S(=O)(=O)O)c(S(=O)(=O)O)c6)cc5S(=O)(=O)O)c(S(=O)(=O)O)c4)cc3)ccc2c1
inactive: HT-29 > 55.1 µM | SF-268 > 69 µM | MCF7 > 100 µM | LOX IMVI > 59.7 µM | NCI/ADR-RES > 100 µM | SN12C > 54.1 µM | CCRF-CEM > 100 µM | SF-295 > 33 µM | RXF 393 > 50.9 µM | A498 > 100 µM | U-251 > 55.8 µM | NCI-H522 > 55.8 µM | Malme-3M > 62.8 µM | SNB-75 35.8 µM | IGROV-1 > 100 µM | UACC-62 7.93 µM

O=C1Nc2cc(F)ccc2C1=O
inactive: HT-29 > 100 µM | TK-10 > 100 µM | SF-268 > 100 µM | LOX IMVI > 100 µM | SN12C > 100 µM | CCRF-CEM > 100 µM | SF-295 > 100 µM | RXF 393 > 100 µM | A498 > 100 µM | U-251 > 100 µM | NCI-H522 60.7 µM | Malme-3M > 100 µM | SNB-75 > 100 µM | IGROV-1 > 100 µM | UACC-62 > 100 µM

[O-][S+]1Nc2c(Cl)cc(Cl)c(Cl)c2S1 (configuration not stated)
inactive: HT-29 > 100 µM | TK-10 > 100 µM | SF-268 > 100 µM | LOX IMVI 78.9 µM | SN12C > 100 µM | CCRF-CEM 39.3 µM | SF-295 > 100 µM | RXF 393 > 100 µM | A498 82.6 µM | U-251 38.6 µM | NCI-H522 78.9 µM | Malme-3M > 100 µM | SNB-75 22.7 µM | IGROV-1 > 100 µM | UACC-62 > 100 µM

O=C1OC[C@@H]2Cc3cc4c(cc3[C@H](c3ccc5c(c3)OCO5)[C@@H]12)OCO4
inactive: HT-29 24.1 µM | TK-10 > 25 µM | MDA-MB-231 22.7 µM | MCF7 24.2 µM | LOX IMVI > 25 µM | NCI/ADR-RES 9.33 µM | SN12C 21.9 µM | CCRF-CEM > 25 µM | SF-295 24.7 µM | U-251 > 25 µM | Malme-3M > 25 µM

O=C(NC(Cc1ccc(Br)cc1)C(=O)O)c1ccc(I)cc1 (configuration not stated)
inactive: HT-29 > 100 µM | SF-268 > 100 µM | MCF7 > 100 µM | LOX IMVI > 100 µM | NCI/ADR-RES > 100 µM | SN12C > 100 µM | CCRF-CEM > 72.9 µM | SF-295 > 100 µM | RXF 393 > 100 µM | A498 > 100 µM | U-251 > 95.3 µM | NCI-H522 > 82.6 µM | Malme-3M 83.4 µM | SNB-75 > 95.7 µM | IGROV-1 > 100 µM | UACC-62 71.9 µM

Cc1ccc2oc(=O)cc(CC(=O)O)c2c1
inactive: HT-29 > 100 µM | TK-10 > 100 µM | SF-268 > 100 µM | LOX IMVI > 100 µM | SN12C > 100 µM | CCRF-CEM > 100 µM | SF-295 > 100 µM | RXF 393 > 100 µM | A498 > 100 µM | U-251 > 100 µM | NCI-H522 > 100 µM | Malme-3M > 100 µM | SNB-75 > 100 µM | IGROV-1 > 100 µM | UACC-62 > 100 µM

CC12CCC3(OCCO3)C(OC(=O)c3ccccc3)=C1CCC21OCCO1 (configuration not stated)
inactive: HT-29 > 100 µM | TK-10 > 100 µM | SF-268 > 100 µM | LOX IMVI > 100 µM | SN12C > 100 µM | CCRF-CEM > 100 µM | SF-295 > 100 µM | RXF 393 > 100 µM | A498 > 100 µM | U-251 > 100 µM | NCI-H522 > 100 µM | Malme-3M > 100 µM | SNB-75 > 100 µM | IGROV-1 > 100 µM | UACC-62 > 100 µM

CC1=C(C(=O)NNC(=O)CC#N)CC(C(=O)NNC(=O)CC#N)=C(C)N1
inactive: HT-29 > 100 µM | TK-10 > 100 µM | MDA-MB-231 > 100 µM | SF-268 > 100 µM | MCF7 > 100 µM | LOX IMVI > 100 µM | NCI/ADR-RES > 100 µM | SN12C > 100 µM | T47D 93.3 µM | SF-295 > 100 µM | RXF 393 > 100 µM | A498 > 100 µM | U-251 > 100 µM | SNB-75 > 100 µM | IGROV-1 > 100 µM

CCCCNC(=S)Nc1nc(C(=O)NNS(=O)(=O)c2ccccc2)cs1
inactive: HT-29 > 10 µM | TK-10 36 µM | MDA-MB-231 29.4 µM | SF-268 27.8 µM | MCF7 42 µM | LOX IMVI 19.4 µM | NCI/ADR-RES 60.3 µM | SN12C 25.6 µM | T47D 71.8 µM | CCRF-CEM 44.3 µM | SF-295 36.2 µM | A498 45.2 µM | U-251 39.5 µM | NCI-H522 28.8 µM | Malme-3M 28.9 µM | SNB-75 35.6 µM | IGROV-1 24.9 µM | UACC-62 22.9 µM

Cc1c(C(=O)CC(=O)C(=O)Nc2c(C(C)C)cccc2C(C)C)[n+]([O-])c2ccccc2[n+]1[O-]
inactive: HT-29 3.56 µM | TK-10 26.1 µM | SF-268 5.01 µM | LOX IMVI 3.4 µM | SN12C 3.15 µM | CCRF-CEM 2.34 µM | SF-295 14.8 µM | RXF 393 13.5 µM | A498 29.4 µM | U-251 3.09 µM | NCI-H522 2.25 µM | Malme-3M 7.19 µM | SNB-75 14.4 µM | IGROV-1 3.55 µM | UACC-62 9.98 µM

From ChEMBL document CHEMBL1201862, “PubChem BioAssay data set” (2004)
